The target of experiment [1] is T1, B^0AT1 (Homo sapiens, UniProt Q695T7).
T1 construct: expressed in transfected cells
T1 sequence (Q695T7 1-634): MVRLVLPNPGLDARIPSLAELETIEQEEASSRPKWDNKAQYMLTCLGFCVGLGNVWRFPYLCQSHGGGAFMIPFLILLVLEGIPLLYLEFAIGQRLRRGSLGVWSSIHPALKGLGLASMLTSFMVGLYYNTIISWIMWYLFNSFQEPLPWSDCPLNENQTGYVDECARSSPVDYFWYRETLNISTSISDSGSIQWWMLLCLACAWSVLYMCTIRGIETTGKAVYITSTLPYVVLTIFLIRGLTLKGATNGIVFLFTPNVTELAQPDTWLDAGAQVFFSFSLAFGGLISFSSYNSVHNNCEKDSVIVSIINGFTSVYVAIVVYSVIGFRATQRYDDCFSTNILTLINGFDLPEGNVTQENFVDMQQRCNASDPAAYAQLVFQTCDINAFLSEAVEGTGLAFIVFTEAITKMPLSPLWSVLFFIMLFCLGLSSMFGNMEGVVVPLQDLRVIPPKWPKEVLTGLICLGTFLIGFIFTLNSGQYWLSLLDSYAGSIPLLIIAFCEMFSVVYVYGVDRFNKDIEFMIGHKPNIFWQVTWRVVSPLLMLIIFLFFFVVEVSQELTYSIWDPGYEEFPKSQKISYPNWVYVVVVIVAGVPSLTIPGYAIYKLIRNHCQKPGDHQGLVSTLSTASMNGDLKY
T1 sequence (Q9HBJ8 15-222 partner): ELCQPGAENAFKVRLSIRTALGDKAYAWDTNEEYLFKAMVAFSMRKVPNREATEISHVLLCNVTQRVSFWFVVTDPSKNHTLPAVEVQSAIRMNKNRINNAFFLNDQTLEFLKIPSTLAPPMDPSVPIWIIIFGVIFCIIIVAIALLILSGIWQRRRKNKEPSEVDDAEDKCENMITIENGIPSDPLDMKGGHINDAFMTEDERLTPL
Description: Mode of inhibition: leucine uptake kinetics at three inhibitor concentrations, FLIPR, Eadie-Hofstee. In kind it is cell-based. The settings on record: CHO-BC cells. The source says:
To understand the mode of inhibition, we determined KM-values at three different inhibitor concentrations using FLIPR assay and plotted Eadie-Hofstee transformed data ( Figure 5 ). Fully parallel lines indicate a change of […], while fully converging lines (at x = 0; y = Vmax) indicate a change of KM only with increasing concentrations of the inhibitor. […] To rationalize the mode of inhibition, we performed docking studies using a homology model of B^0AT1 based on the outside-open conformation of LeuT. […] In the homology structure the two Na^+ are shown as yellow spheres. Both, LeuT Na^+-site 1 and -site 2 are conserved in B^0AT1, but only one site is used functionally. This is most likely site 1 as it binds the α-carboxyl-group of the amino acids ([O’mara et al., 2006]). […] Many transport inhibitors are substrate analogues that are too large to fit into the occluded substrate binding cavity, thereby blocking the conformational change required for transport ([Broer, 2018]). […] Instead the compounds preferred binding to different sites in the vestibule, including the proposed Substrate-binding site 2 ([Shi et al., 2008]), which was the preferred docking site for compound E4. In the outside open conformation, the volume of the binding site increases, encompassing an orthostatic binding site ( Figure 5H , orange), occupied by E4, E18, or the substrate and an allosteric binding site ( Figure 5H , blue), which is compatible with substrate binding.
Figure 5 Mechanistic aspects of B^0AT1 inhibitors. Inhibition of B^0AT1 by compounds E4 (A), E18 (B) and CB3 (C) (n = 3, e = 3) was determined by FLIPR assay in CHO-BC cells. To determine the mode of inhibition, the kinetic properties of leucine uptake were determined in the presence of three different inhibitor concentrations. Docking poses of compounds E4 (D), E18 (E) and CB3 (F) are shown for comparison. Amino acid side-chains of the binding pocket are shown in green, cosubstrate Na^+ 1 is shown in yellow (foreground), Na^+ 2 is only partially visible in the background and may not exist in B^0AT1. […]

The target of experiment [2] is T1, B^0AT1. Description: Membrane potential detecting FLIPR assay in CHO-BC cells. In kind it is cell-based. The settings on record: 30 min pre-incubation, leucine or isoleucine 1.5 mM. The protocol: CHO-B^0AT1-collectrin Cells (CHO-BC) were generated, cultured, and used as described recently ([Cheng et al., 2017]). Expression levels of B^0AT1 in CHO-BC cells decline over time. As a result, passages <10 were used for experiments. The cells were maintained in Ham’s F-12 glutamax media with 10% (v/v) fetal bovine serum (FBS, Heat inactivated, 10082147 Gibco), 1mM glutamine, 300μg/ml hygromycin B and 275 μg/ml geneticin.
Membrane depolarisation induced by amino acid transport was monitored using a FLIPR® kit (Molecular Devices, R8042 BLUE DYE). Before the assay, CHO-BC cells were seeded out at a density of 60,000 cells/well and maintained in a flat transparent bottom 96-well plate (Corning) overnight. After washing three times with Hank’s balanced salt solution (136.6 mM NaCl, 5.4 mM KCl, 0.44 mM KH2PO4, 2.7mM Na2HPO4, 1.26mM CaCl2, 0.5mM MgCl2, 0.4 mM MgSO4, 10mM HEPES, pH 7.5, supplemented with 5 mM glucose, abbreviated HBSS + G), cells in each well were incubated for 30 min at room temperature in 50 µl of HBSS pH 7.5 containing 5 mM glucose and compounds as indicated, together with 50 µl of dye-loading buffer provided with the kit. Subsequently, the fluorescence signal was detected every 10 s before and after the addition of leucine or isoleucine at a final concentration of 1.5 mM. Fluorescence was detected at room temperature using a PerkinElmer multimode Plate Reader, with an excitation wavelength of 530 nm and emission wavelength of 565 nm.
Data are shown as mean ± S.D., transport activities indicated as Na^+-dependent net uptake, were calculated by subtracting the uptake activity in the absence of Na^+ from the total uptake rate. The fluorescent signals measured in the FLIPR assay were normalized to baseline readings before the addition of substrates. Data are presented as percentage of baseline at each time point. IC50 was calculated using the equation: y=ymax(1−[x]/[x]+IC50) .

We go through 3 compounds from paper PMC7059793, “Novel Chemical Scaffolds to Inhibit the Neutral Amino Acid Transporter B^0AT1 (SLC6A19), a Potential Target to Treat Metabolic Diseases” (Frontiers in Pharmacology, 2020).

As a reminder, the IC50 is the point on the concentration scale where inhibition reaches its midpoint. A higher IC50 goes with lower potency.

As for `Cc1cc(C(=O)Nc2ccc(Cl)cc2C(F)(F)F)no1` [CB3], in experiment [1], the Mode of inhibition result is given as “more mixed model”. This compound gave an IC50 in experiment [2] of 1.9 ± 0.6 µM.

As to `Cc1cc(OCC(=O)NC(C)C)cc(C)c1Cl` [Compound E4], the Mode of inhibition result in experiment [1] is “largely competitive mode of inhibition”. Further, in experiment [2], half-maximal inhibition (IC50) was put at 13.7 ± 0.9 µM.

As for `COc1ccccc1Nc1nc2ccccc2s1` [Compound E18], the Mode of inhibition entry in experiment [1] is “largely competitive mode of inhibition”. The compound further gave an IC50 in experiment [2] of 4.2 ± 0.9 µM.
